In US6355799B1, “Substituted benzene compounds, process for their preparation, and herbicidal and defoliant compositions containing them” (ISK Americas Incorporated, priority 1997, dated 2002):

How the values were obtained:
Type in all cases: in vivo
[1] = system: field corn (Zea mays L., var. Dekalb 535, CORN); assay: Pre-emerge test, crop safety; conditions: rated 14 days after application, 0 = no damage, 100 = complete death
Outline: (§1)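 Visual ratings on a 0-100 scale (0 no damage, 100 all plants dead) were taken at 14 days after treatment. Rates of 15-1000 g ai/ha in acetone, 187 l/ha, were sprayed onto soil one day after planting (pre-emerge) or onto 2-3 leaf plants with 0.25% v/v surfactant (post-emerge).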

[2] = system: upland rice (Oryza sp., var. Tebonnet, RICE); assay: Pre-emerge test, crop safety; conditions: rated 14 days after application, 0 = no damage, 100 = complete death
Outline: as §1

[3] = system: redroot pigweed (Amaranthus retroflexus, AMARE); assay: Pre-emerge test, greenhouse herbicide activity screening; conditions: rated 14 days after application, 0 = no damage, 100 = complete death
Outline: (§2)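 Rating: 0–100 visual injury, 14 DAA. Application: acetone, 187 l/ha, 15–1000 g ai/ha, flat-fan track sprayer with nozzle 40–45 cm above soil or canopy. Post-emerge runs used 0.25% v/v surfactant on 2–3 leaf plants.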

[4] = system: velvetleaf (Abutilon theophrasti, ABUTH); assay: Post-emerge test, greenhouse herbicide activity screening; conditions: post-emerge, 14 days after application, rating scale 0-100
Outline: (§3)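 Sandy loam pots; pre-emerge: sown 1 d pre-spray, surface-watered after, then bottom-watered. Post-emerge: sown 8–21 d before, 2–3 leaf stage, + 0.25% v/v NIS, bottom-watered. Acetone, 187 l/ha track spray, 15–1000 g ai/ha. 0–100 injury score, day 14.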

[5] = system: sicklepod (Cassia obtusifolia, CASOB); assay: as above; conditions: post-emerge, 14 days after application, rating scale 0-100
Outline: as §3

[6] = system: redroot pigweed (Amaranthus retroflexus, AMARE); assay: as above; conditions: post-emerge, 14 days after application, rating scale 0-100
Outline: as §3

[7] = system: barnyardgrass (Echinochloa crus-galli, ECHCG); assay: as above; conditions: post-emerge, 14 days after application, rating scale 0-100
Outline: as §3

[8] = system: lambsquarters (Chenopodium album, CHEAL); assay: as above; conditions: post-emerge, 14 days after application, rating scale 0-100
Outline: as §3

[9] = system: ivyleaf morningglory (Ipomoea hederacea, IPOHE); assay: as above; conditions: post-emerge, 14 days after application, rating scale 0-100
Outline: as §3

[10] = system: common ragweed (Ambrosia artemisizfolia L., AMBEL); assay: as above; conditions: post-emerge, 14 days after application, rating scale 0-100
Outline: as §3

[11] = system: large crabgrass (Digitaria sanguinalis, DIGSA); assay: as above; conditions: post-emerge, 14 days after application, rating scale 0-100
Outline: as §3

[12] = system: johnsongrass (Sorghum halepense, SORHA); assay: as above; conditions: post-emerge, 14 days after application, rating scale 0-100
Outline: as §3

[13] = system: green foxtail (Setaria viridis, SETVI); assay: as above; conditions: post-emerge, 14 days after application, rating scale 0-100
Outline: as §3

[14] = system: field corn (Zea mays L., var. Dekalb 535, CORN); assay: Post-emerge test, crop safety; conditions: post-emerge, 14 days after application, rating scale 0-100
Outline: (§4)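 Plants grown in 10 cm pots of sandy loam mix received acetone-dissolved compounds through a moving flat-fan nozzle. Doses ranged from 15 to 1000 g ai/ha. Pre-emerge pots were seeded one day earlier, post-emerge pots 8–21 days earlier. Fourteen days on, each pot was graded 0–100 for damage.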

[15] = system: upland rice (Oryza sp., var. Tebonnet, RICE); assay: Post-emerge test, crop safety; conditions: post-emerge, 14 days after application, rating scale 0-100
Outline: as §4

[16] = system: velvetleaf (Abutilon theophrasti, ABUTH); assay: Pre-emerge test, greenhouse herbicide activity screening; conditions: rated 14 days after application, 0 = no damage, 100 = complete death
Outline: as §2

[17] = system: sicklepod (Cassia obtusifolia, CASOB); assay: as above; conditions: rated 14 days after application, 0 = no damage, 100 = complete death
Outline: as §2

[18] = system: barnyardgrass (Echinochloa crus-galli, ECHCG); assay: as above; conditions: rated 14 days after application, 0 = no damage, 100 = complete death
Outline: as §2

[19] = system: lambsquarters (Chenopodium album, CHEAL); assay: as above; conditions: rated 14 days after application, 0 = no damage, 100 = complete death
Outline: as §2

[20] = system: ivyleaf morningglory (Ipomoea hederacea, IPOHE); assay: as above; conditions: rated 14 days after application, 0 = no damage, 100 = complete death
Outline: as §2

[21] = system: common ragweed (Ambrosia artemisizfolia L., AMBEL); assay: as above; conditions: rated 14 days after application, 0 = no damage, 100 = complete death
Outline: as §2

[22] = system: large crabgrass (Digitaria sanguinalis, DIGSA); assay: as above; conditions: rated 14 days after application, 0 = no damage, 100 = complete death
Outline: as §2

[23] = system: johnsongrass (Sorghum halepense, SORHA); assay: as above; conditions: rated 14 days after application, 0 = no damage, 100 = complete death
Outline: as §2

[24] = system: green foxtail (Setaria viridis, SETVI); assay: as above; conditions: rated 14 days after application, 0 = no damage, 100 = complete death
Outline: as §2

COc1c(Cl)cc(F)c(-n2c(=O)cc(C(F)(F)F)n(C)c2=O)c1NC(=O)c1ccc(Cl)c(Cl)c1 [2-59]
80: phytotoxicity rating CORN ([14]; 250 g ai/ha) | phytotoxicity rating RICE ([15]; 250 g ai/ha)
100: Pre-emerge Herbicidal Activity, phytotoxicity rating (0-100), AMARE ([3]; 63 g ai/ha) | Pre-emerge Herbicidal Activity, phytotoxicity rating (0-100), AMARE ([3]; 250 g ai/ha) | phytotoxicity rating ABUTH ([4]; 63 g ai/ha) | phytotoxicity rating ABUTH ([4]; 250 g ai/ha) | phytotoxicity rating CASOB ([5]; 250 g ai/ha) | phytotoxicity rating AMARE ([6]; 63 g ai/ha) | phytotoxicity rating AMARE ([6]; 250 g ai/ha) | phytotoxicity rating CHEAL ([8]; 63 g ai/ha) | phytotoxicity rating CHEAL ([8]; 250 g ai/ha) | phytotoxicity rating IPOHE ([9]; 63 g ai/ha) | phytotoxicity rating IPOHE ([9]; 250 g ai/ha) | phytotoxicity rating AMBEL ([10]; 250 g ai/ha) | Pre-emerge Herbicidal Activity, phytotoxicity rating (0-100), ABUTH ([16]; 63 g ai/ha) | Pre-emerge Herbicidal Activity, phytotoxicity rating (0-100), ABUTH ([16]; 250 g ai/ha) | Pre-emerge Herbicidal Activity, phytotoxicity rating (0-100), CASOB ([17]; 250 g ai/ha) | Pre-emerge Herbicidal Activity, phytotoxicity rating (0-100), CHEAL ([19]; 63 g ai/ha) | Pre-emerge Herbicidal Activity, phytotoxicity rating (0-100), CHEAL ([19]; 250 g ai/ha) | Pre-emerge Herbicidal Activity, phytotoxicity rating (0-100), IPOHE ([20]; 250 g ai/ha) | Pre-emerge Herbicidal Activity, phytotoxicity rating (0-100), DIGSA ([22]; 250 g ai/ha) | Pre-emerge Herbicidal Activity, phytotoxicity rating (0-100), SETVI ([24]; 63 g ai/ha) | Pre-emerge Herbicidal Activity, phytotoxicity rating (0-100), SETVI ([24]; 250 g ai/ha)
70: Pre-emerge phytotoxicity rating (0-100), crop damage, CORN ([1]; 250 g ai/ha) | phytotoxicity rating AMBEL ([10]; 63 g ai/ha) | phytotoxicity rating CORN ([14]; 63 g ai/ha) | phytotoxicity rating RICE ([15]; 63 g ai/ha) | Pre-emerge Herbicidal Activity, phytotoxicity rating (0-100), DIGSA ([22]; 63 g ai/ha)
10: Pre-emerge phytotoxicity rating (0-100), crop damage, CORN ([1]; 63 g ai/ha)
30: phytotoxicity rating ECHCG ([7]; 250 g ai/ha) | phytotoxicity rating DIGSA ([11]; 250 g ai/ha) | phytotoxicity rating SORHA ([12]; 63 g ai/ha) | Pre-emerge Herbicidal Activity, phytotoxicity rating (0-100), CASOB ([17]; 63 g ai/ha)
20: phytotoxicity rating SETVI ([13]; 63 g ai/ha) | phytotoxicity rating SETVI ([13]; 250 g ai/ha) | Pre-emerge Herbicidal Activity, phytotoxicity rating (0-100), IPOHE ([20]; 63 g ai/ha)
90: phytotoxicity rating CASOB ([5]; 63 g ai/ha) | Pre-emerge Herbicidal Activity, phytotoxicity rating (0-100), AMBEL ([21]; 250 g ai/ha) | Pre-emerge Herbicidal Activity, phytotoxicity rating (0-100), SORHA ([23]; 250 g ai/ha)
0: phytotoxicity rating ECHCG ([7]; 63 g ai/ha) | phytotoxicity rating DIGSA ([11]; 63 g ai/ha)
9: Pre-emerge Herbicidal Activity, phytotoxicity rating (0-100), ECHCG ([18]; 250 g ai/ha)
50: Pre-emerge Herbicidal Activity, phytotoxicity rating (0-100), AMBEL ([21]; 63 g ai/ha)
40: Pre-emerge Herbicidal Activity, phytotoxicity rating (0-100), ECHCG ([18]; 63 g ai/ha) | Pre-emerge Herbicidal Activity, phytotoxicity rating (0-100), SORHA ([23]; 63 g ai/ha)
65: phytotoxicity rating SORHA ([12]; 250 g ai/ha)
25: Pre-emerge phytotoxicity rating (0-100), crop damage, RICE ([2]; 63 g ai/ha)
75: Pre-emerge phytotoxicity rating (0-100), crop damage, RICE ([2]; 250 g ai/ha)
